# Experimental data: ChEMBL document CHEMBL1201862, “PubChem BioAssay data set” (2004)
#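 1) Cells in 96-well plates. 2) Compound, 48 h, 5 concentrations. 3) Linear interpolation between surrounding doses. 4) Unreached endpoint = highest concentration. Here, GI50 denotes the concentration required for 50% inhibition of growth.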 Active and inactive are the calls of the source. Cut-off read from the data, not from the text of the source: active = GI50 up to about 1.1 µM and inactive = higher.
# What was measured:
# Assay in all cases: inhibition of tumour cell growth, NCI panel, 48 h
# RXF 393 = tested on: RXF 393
# SK-MEL-28 = tested on: SK-MEL-28
# NCI-H226 = tested on: NCI-H226
# ACHN = tested on: ACHN
# SW-620 = tested on: SW-620
# HOP-62 = tested on: HOP-62
# EKVX = tested on: EKVX
# UO-31 = tested on: UO-31
# SNB-19 = tested on: SNB-19
# UACC-257 = tested on: UACC-257
# 786-0 = tested on: 786-0
# SK-MEL-5 = tested on: SK-MEL-5
# SNB-75 = tested on: SNB-75
# KM-20L2 = tested on: KM-20L2
# LOX IMVI = tested on: LOX IMVI
# SF-539 = tested on: SF-539
# U-251 = tested on: U-251
# RPMI-8226 = tested on: RPMI-8226
Compound,GI50 (RXF 393),GI50 (SK-MEL-28),GI50 (NCI-H226),GI50 (ACHN),GI50 (SW-620),GI50 (HOP-62),GI50 (EKVX),GI50 (UO-31),GI50 (SNB-19),GI50 (UACC-257),GI50 (786-0),GI50 (SK-MEL-5),GI50 (SNB-75),GI50 (KM-20L2),GI50 (LOX IMVI),GI50 (SF-539),GI50 (U-251),GI50 (RPMI-8226)
C1COCCSC2=C(SCCO1)SC(=C1SC3=C(SCCOCCOCCS3)S1)S2,32.8 µM (inactive),> 100 µM (inactive),> 100 µM (inactive),> 100 µM (inactive),> 100 µM (inactive),82.2 µM (inactive),> 100 µM (inactive),> 100 µM (inactive),73.8 µM (inactive),> 100 µM (inactive),45.8 µM (inactive),> 100 µM (inactive),21.7 µM (inactive),> 100 µM (inactive),> 100 µM (inactive),34.5 µM (inactive),49.2 µM (inactive),–
O=C1/C(=C/c2ccccc2Cl)COc2ccc(Br)cc21,39 µM (inactive),> 100 µM (inactive),–,> 100 µM (inactive),23.8 µM (inactive),92.7 µM (inactive),> 100 µM (inactive),55.7 µM (inactive),–,> 100 µM (inactive),37.4 µM (inactive),–,30.4 µM (inactive),> 100 µM (inactive),> 100 µM (inactive),52.8 µM (inactive),40.6 µM (inactive),2.1 µM (inactive)
Cc1ccc(C)c(N2C(=O)C(=O)C(c3nc4ccccc4s3)/C(=N/NC(=O)NN)C2=O)c1 (stereo unspecified),> 100 µM (inactive),> 100 µM (inactive),> 100 µM (inactive),> 100 µM (inactive),> 100 µM (inactive),> 100 µM (inactive),> 100 µM (inactive),> 100 µM (inactive),> 100 µM (inactive),> 100 µM (inactive),> 100 µM (inactive),> 100 µM (inactive),> 100 µM (inactive),> 100 µM (inactive),–,> 100 µM (inactive),> 100 µM (inactive),–
Nc1ccc(/C=C/c2ccnc3ccccc23)cc1,–,32.4 µM (inactive),17.7 µM (inactive),19.2 µM (inactive),24.7 µM (inactive),15.3 µM (inactive),–,16.5 µM (inactive),27.6 µM (inactive),22.2 µM (inactive),18.6 µM (inactive),15.2 µM (inactive),15.9 µM (inactive),20.2 µM (inactive),–,20 µM (inactive),16.8 µM (inactive),15.6 µM (inactive)
CCCCOC(=O)NC(=O)c1cn(CCCOC(=O)NCCCCCCNC(=O)OCCCn2cc(C(=O)NC(=O)OCCCC)c(=O)[nH]c2=O)c(=O)[nH]c1=O,> 100 µM (inactive),> 100 µM (inactive),–,> 100 µM (inactive),> 100 µM (inactive),> 100 µM (inactive),> 100 µM (inactive),> 100 µM (inactive),48.4 µM (inactive),> 100 µM (inactive),> 100 µM (inactive),> 100 µM (inactive),> 100 µM (inactive),> 100 µM (inactive),> 100 µM (inactive),> 100 µM (inactive),> 100 µM (inactive),> 100 µM (inactive)
CC12C=C[C@]3(CC[C@@H]4[C@@](C)(CO)CCC[C@]4(C)C3CC1)C2 (stereo partly specified),13.7 µM (inactive),19.2 µM (inactive),–,18.1 µM (inactive),17.6 µM (inactive),14.6 µM (inactive),24.8 µM (inactive),17.8 µM (inactive),19.6 µM (inactive),18.5 µM (inactive),16 µM (inactive),–,> 10 µM (inactive),0.382 µM (active),15.6 µM (inactive),16.4 µM (inactive),16.6 µM (inactive),17.9 µM (inactive)
